SMILES strings stand for the structures. Counter-ions that a name gives are not always drawn. Where only a bound is given, the exact number is not on record here.

The term IC50 denotes the concentration at which inhibition is half-maximal.

The target in the assay is T1, human SSAO (Homo sapiens, UniProt Q16853).
T1 construct: made in house
T1 sequence (Q16853 29-763 limits assumed): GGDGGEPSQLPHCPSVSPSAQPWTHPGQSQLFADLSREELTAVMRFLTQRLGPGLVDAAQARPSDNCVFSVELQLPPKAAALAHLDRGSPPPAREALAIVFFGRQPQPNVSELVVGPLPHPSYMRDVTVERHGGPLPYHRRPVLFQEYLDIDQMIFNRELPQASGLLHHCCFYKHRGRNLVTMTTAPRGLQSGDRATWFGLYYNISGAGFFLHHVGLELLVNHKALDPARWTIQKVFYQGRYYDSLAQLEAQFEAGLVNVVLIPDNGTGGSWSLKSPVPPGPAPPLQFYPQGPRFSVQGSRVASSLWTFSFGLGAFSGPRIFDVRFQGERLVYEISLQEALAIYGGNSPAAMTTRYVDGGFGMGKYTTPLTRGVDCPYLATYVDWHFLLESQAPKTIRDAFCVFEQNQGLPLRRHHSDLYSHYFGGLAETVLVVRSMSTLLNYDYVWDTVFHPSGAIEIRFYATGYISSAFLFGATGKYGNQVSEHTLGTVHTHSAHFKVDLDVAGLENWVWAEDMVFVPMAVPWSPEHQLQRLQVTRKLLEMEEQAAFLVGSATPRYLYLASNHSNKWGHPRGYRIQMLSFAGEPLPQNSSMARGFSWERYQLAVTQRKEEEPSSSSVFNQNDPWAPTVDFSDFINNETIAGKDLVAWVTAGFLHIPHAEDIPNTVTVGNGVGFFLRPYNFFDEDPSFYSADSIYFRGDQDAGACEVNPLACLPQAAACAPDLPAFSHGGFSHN
Kind of assay: SSAO inhibitory activity (HRP-coupled hydrogen peroxide detection or 14C-benzaldehyde detection, benzylamine substrate). It counts as biochemical. The settings on record: purified recombinantly expressed human SSAO, benzylamine as substrate, RT. On the procedure: All primary assays were performed at RT. with purified recombinantly expressed human SSAO. Enzyme was prepared essentially as described in Öhman et al. (Protein Expression and Purification 46 (2006) 321-331). In addition, secondary- and selectivity assays were performed using SSAO prepared from various tissues or purified rat recombinant SSAO. The enzyme activity was assayed with benzylamine as substrate by measuring either benzaldehyde production, using ^14C-labeled substrate, or by utilizing the production of hydrogen peroxide in a horseradish peroxidase (HRP) coupled reaction. Briefly, test compounds were dissolved in dimethyl sulfoxide (DMSO) to a concentration of 10 mM. Dose-response measurements were assayed by either creating 1:10 serial dilutions in DMSO to produce a 7 point curve or by making 1:3 serial dilutions in DMSO to produce 11 point curves. The top concentrations were adjusted depending on the potency of the compounds and subsequent dilution in reaction buffer yielded a final DMSO concentration ≦2%.
In a horseradish peroxidase (HRP) coupled reaction, hydrogen peroxide oxidation of 10-acetyl-3,7-dihydroxyphenoxazine produced resorufin, which is a highly fluorescent compound (Zhout and Panchuk-Voloshina. Analytical Biochemistry 253 (1997) 169-174; Amplex® Red Hydrogen Peroxideperoxidase Assay kit, Invitrogen A22188). Enzyme and compounds in 50 mM sodium phosphate, pH 7.4 were set to pre-incubate in flat-bottomed microtiter plates for approximately 15 minutes before initiating the reaction by addition of a mixture of HRP, benzylamine and Amplex reagent. Benzylamine concentration was fixed at a concentration corresponding to the Michaelis constant, determined using standard procedures. Fluorescence intensity was then measured at several time points during 1-2 hours, exciting at 544 nm and reading the emission at 590 nm. For the human SSAO assay final concentrations of the reagents in the assay wells were: SSAO enzyme 1 μg/ml, benzylamine 100 μM, Amplex reagent 20 μM, HRP 0.1 U/mL and varying concentrations of test compound. The inhibition was measured as % decrease of the signal compared to a control without inhibitor (only diluted DMSO). The background signal from a sample containing no SSAO enzyme was subtracted from all data points. Data was fitted to a four parameter logistic model and IC50 values were calculated using the Graph Pad Prism 4 or XLfit 4 programs.
SSAO activity was assayed using 14C-labeled benzylamine and analysed by measuring radioactive benzaldehyde. In a white 96-well optiplate (Packard), 20 μL of diluted test compound was pre-incubated at RT. with 20 μL SSAO enzyme for approximately 15 minutes with continuous agitation. All dilutions were made with PBS. The reaction was initiated by adding 20 μL of the benzylamine substrate solution containing [7-14C] Benzylamine hydrochloride (CFA589, GE Healthcare). The plate was incubated for 1 hour as above after which the reaction was stopped by acidification (10 μL 1 M HCl). Then 90 μL Micro Scint-E solution (Perkin-Elmer) was added to each well and the plate was continuously mixed for 15 minutes. Phase separation occurred instantly and activity was read in a Topcount scintillation counter (Perkin-Elmer). In the final reaction well, the human recombinant SSAO concentration was 10 μg/ml. In order to optimize sensitivity, the substrate concentration was decreased as compared to the HRP coupled assay in order to get a higher fraction of radioactive product. In the human SSAO assay, benzylamine concentration was 40 μM (0.2 μCi/mL). Data was analysed as above.
For `CC(C)N1CCC(CNC(=O)N2CCC(c3cn(-c4ccc(Cl)cc4)c4cnccc34)CC2)CC1` [Compound 27, 4-[1-(4-Chlorophenyl)-1H-pyrrolo[2,3-c]pyridin-3-yl]-N-{[1-(propan-2-yl)piperidin-4-yl]methyl}piperidine-1-carboxamide; formic acid], the IC50 is less than 100 nM.

Take `CN1CCC(NC(=O)CC2COCCN2c2nn(-c3ccc(Cl)cc3)c3cnccc23)CC1` (stereo not drawn) [Compound 57, 2-{4-[1-(4-Chlorophenyl)-1H-pyrazolo[3,4-c]pyridin-3-yl]morpholin-3-yl)-N-(1-methylpiperidin-4-yl)acetamide]: the IC50 fell in the range of 100 to 500 nM.

Regarding `COCCN1CCC(CNC(=O)N2CCC(c3cn(-c4ccc(Cl)cc4)c4cnccc34)CC2)CC1` [Compound 28, 4-[1-(4-Chlorophenyl)-1H-pyrrolo[2,3-c]pyridin-3-yl]-N-{[1-(2-methoxyethyl)piperidin-4-yl]methyl}piperidine-1-carboxamide; formic acid], the concentration for half-maximal inhibition (IC50) was less than 100 nM.

As to `CC(C)N1CCC(CN(C)C(=O)N2CCC(c3cn(-c4ccc(Cl)cc4)c4cnccc34)CC2)CC1` [Compound 15, 4-[1-(4-Chlorophenyl)-1H-pyrrolo[2,3-c]pyridin-3-yl]-N-methyl-N-{[1-(propan-2-yl)piperidin-4-yl]methyl} piperidine-1-carboxamide], the IC50 is less than 100 nM.

Turning to `CNC(=O)NCC1CN(c2nn(-c3ccc(Cl)cc3)c3cnccc23)CCO1` (stereo not drawn) [Compound 60, 1-({4-[1-(4-Chlorophenyl)-1H-pyrazolo[3,4-c]pyridin-3-yl]morpholin-2-yl}methyl)-3-methylurea], the IC50 was less than 100 nM.

Take `Clc1ccc(-n2nc(NCCN3CCNCC3)c3ccncc32)cc1` [Compound 45, 1-(4-Chlorophenyl)-N-[2-(piperazin-1-yl)ethyl]-1H-pyrazolo[3,4-c]pyridin-3-amine]: the IC50 was in the range of 100 to 500 nM.

Consider `O=C(CC1CCNCC1)N1CCC(c2cn(-c3ccc(Cl)cc3)c3cnccc23)CC1` [Compound 4, 1-{4-[1-(4-Chlorophenyl)-1H-pyrrolo[2,3-c]pyridin-3-yl]piperidin-1-yl}-2-(piperidin-4-yl)ethan-1-one], for which the IC50 was less than 100 nM.

With `CN1CCN(C(=O)N2CCC(c3cn(-c4ccc(Cl)cc4)c4cnccc34)CC2)CC1` [Compound 5, 1-({4-[1-(4-Chlorophenyl)-1H-pyrrolo[2,3-c]pyridin-3-yl]piperidin-1-yl}carbonyl)-4-methylpiperazine], the IC50 is less than 100 nM.

`O=C(O)CC1COCCN1c1nn(-c2ccc(Cl)cc2)c2cnccc12` (stereo not drawn) [Compound 53, 2-{4-[1-(4-Chlorophenyl)-1H-pyrazolo[3,4-c]pyridin-3-yl]morpholin-3-yl}acetic acid hydrochloride]: the half-inhibitory concentration (IC50) lay within 500 to 2500 nM.

As for `CCNC(=O)N1CCN(CC2CN(c3nn(-c4ccc(Cl)cc4)c4cnccc34)CCO2)CC1` (stereo not drawn) [Compound 39, 4-({4-[1-(4-Chlorophenyl)-1H-pyrazolo[3,4-c]pyridin-3-yl]morpholin-2-yl}methyl)-N-ethylpiperazine-1-carboxamide], the IC50 was 100 to 500 nM.

In the case of `CC(C)N1CCN(C(=O)N2CCC(c3cn(-c4ccc(Cl)cc4)c4cnccc34)CC2)CC1` [Compound 17, 1-({4-[1-(4-Chlorophenyl)-1H-pyrrolo[2,3-c]pyridin-3-yl]piperidin-1-yl}carbonyl)-4-(propan-2-yl)piperazine], the half-maximal inhibitory concentration (IC50) was less than 100 nM.

As for `O=C(NC1(c2nn[nH]n2)CCC1)N1CCC(c2cn(-c3ccc(Cl)cc3)c3cnccc23)CC1` [Compound 63, 4-[1-(4-Chlorophenyl)-1H-pyrrolo[2,3-c]pyridin-3-yl]-N-[1-(2H-1,2,3,4-tetrazol-5-yl)cyclobutyl]piperidine-1-carboxamide; trifluoroacetic acid], the IC50 was less than 100 nM.

For `NC(=O)CN1CCC(CNC(=O)N2CCC(c3cn(-c4ccc(Cl)cc4)c4cnccc34)CC2)CC1` [Compound 14, N-{[1-(Carbamoyl-methyl)piperidin-4-yl]methyl}-4-[1-(4-chlorophenyl)-1H-pyrrolo[2,3-c]pyridin-3-yl] piperidine-1-carboxamide; formic acid], the IC50 is less than 100 nM.

Regarding `CN1CCN(CCNC(=O)N2CCC(c3cn(-c4ccc(Cl)cc4)c4cnccc34)CC2)CC1` [Compound 25, 4-[1-(4-Chlorophenyl)-1H-pyrrolo[2,3-c]pyridin-3-yl]-N-[2-(4-methylpiperazin-1-yl)ethyl] piperidine-1-carboxamide], the IC50 was less than 100 nM.

On to `NCCCOC(=O)N1CCN(CC2CN(c3nn(-c4ccc(Cl)cc4)c4cnccc34)CCO2)CC1` (stereo not drawn) [Compound 37, 3-Aminopropyl 4-({4-[1-(4-chlorophenyl)-1H-pyrazolo[3,4-c]pyridin-3-yl]morpholin-2-yl}methyl)piperazine-1-carboxylate trihydrochloride], for which the 50% inhibitory concentration (IC50) was 100 to 500 nM.

As to `Clc1ccc(-n2nc(N3CCC(CN4CCOCC4)CC3)c3ccncc32)cc1` [Compound 48, 4-({1-[1-(4-Chlorophenyl)-1H-pyrazolo[3,4-c]pyridin-3-yl]piperidin-4-yl}methyl) morpholine dihydrochloride], the concentration for half-maximal inhibition (IC50) is less than 100 nM.

`O=C(NC(c1nn[nH]n1)C1CC1)N1CCC(c2cn(-c3ccc(Cl)cc3)c3cnccc23)CC1` (stereo not drawn) [Compound 62, 4-[1-(4-Chlorophenyl)-1H-pyrrolo[2,3-c]pyridin-3-yl]-N—[cyclopropyl(2H-1,2,3,4-tetrazol-5-yl)methyl]piperidine-1-carboxamide; trifluoroacetic acid]: the half-maximal inhibitory concentration (IC50) was less than 100 nM.

As for `CN1CCN(CC2CN(c3nn(-c4ccc(Cl)cc4)c4cnccc34)CCO2)CC1` (stereo not drawn) [Compound 35, 4-[1-(4-Chlorophenyl)-1H-pyrazolo[3,4-c]pyridin-3-yl]-2-[(4-methylpiperazin-1-yl)methyl]morpholine], the IC50 was 100 to 500 nM.

The record behind these values is patent US20140275063A1, “NEW ENZYME INHIBITOR COMPOUNDS” (PROXIMAGEN LIMITED, priority 2011, published 2014).
